Measured values from patent US8889680B2, “Treatment or prevention of fungal infections with PDK1 inhibitors” (priority 2010, dated 2014).
≈ marks a conversion by molar mass, not a printed value. Like-named read-outs stand apart in the source and are kept apart here.

Assays:
[1] = system: C. albicans clinical reference strain SC5314; test: Adenylate kinase (AK) release assay of yeast cell lysis; type: cell-based, Candida albicans; set-up: dose or concentration left out as unconfirmed; details: extracellular AK activity relative to DMSO-treated cells
Procedure: AK assays were performed according to a recently published protocol (Didone et al., Nat. Protocol. 5:1107-14 (2010)) using the 96-well plate version using the Toxi-Light Assay kit (Lonza; Basel, Switzerland). Luminescence was measured using a SpectraMax plate reader (Molecular Devices; Sunnyvale, Calif.). […] To identify PKIs that disrupt yeast cell wall integrity, a four-part screening strategy as outlined in FIG. 1A was designed. The primary screen in the approach detects molecules that cause yeast cells to lyse, a characteristic phenotype of yeast cell wall damage, by use of an assay that detects the release of adenylate kinase (AK) to the growth medium as a reporter of yeast cell lysis. […] Last, to select PKIs specific for the CWI signaling pathway, the set of hits were tested for their ability to block the activation of a transcriptional reporter of the CWI-signaling pathway. To rapidly survey a sample of well-characterized PKIs, the commercially available InhibitorSelect collection, a library of 80 PKIs with diverse mechanistic and structural characteristics, was utilized. C. albicans clinical reference strain SC5314 was screened against the InhibitorSelect library for molecules that caused a release of AK into the growth medium.

[2] = system: C. albicans; test: Antifungal susceptibility (microdilution MIC), C. albicans; type: cell-based, Candida albicans
Procedure: (§1) The antifungal activity of protein kinase inhibitors was determined using the Clinical and Laboratory Science Institute microdilution protocol M-27A2. Biofilm antifungal activity was determined using the protocol of Pierce et al. and is reported as MIC50S (Pierce et al., Nat. Protoc. 3:1494-1500 (2008)). Disk diffusion assays were performed as described previously (Roelants et al., Microbiology 150:3289-304 (2004)).
To identify PKIs that disrupt yeast cell wall integrity, a four-part screening strategy as outlined in FIG. 1A was designed. The primary screen in the approach detects molecules that cause yeast cells to lyse, a characteristic phenotype of yeast cell wall damage, by use of an assay that detects the release of adenylate kinase (AK) to the growth medium as a reporter of yeast cell lysis. Previously it was shown that the AK assay in HTS format can detect as few as 500 lysed yeast cells in a sample of 10^5 cells (Didone et al., Nat. Protocol. 5:1107-14 (2010)). PKIs that cause yeast cells lysis (hits) were then re-confirmed by AK dose-response assays and tested for in vitro antifungal activity against the human fungal pathogen C. albicans using standard microdilution susceptibility testing. Last, to select PKIs specific for the CWI signaling pathway, the set of hits were tested for their ability to block the activation of a transcriptional reporter of the CWI-signaling pathway. […]

[3] = system: C. neoformans; test: Antifungal susceptibility (microdilution MIC), C. neoformans; type: cell-based, Cryptococcus neoformans
Procedure: as §1
(FIG. 3A). […] Since the echinocandin class of cell wall-targeted 1,3-β-glucan synthase inhibitors is not active against C. neoformans, this represents one of the few cell wall-targeted molecules with activity against this important pathogen.

[4] = system: C. albicans biofilms; test: Biofilm XTT reduction assay of metabolic activity; type: cell-based, Candida albicans; details: at higher concentrations than those active against planktonic cells
Procedure: Filled circles indicate growth and clear circles indicate no detectable turbidity. The lowest concentration of drug resulting in no growth is defined as the MIC. […] Metabolic activity was determined using the XTT assay.
SC5314 biofilms were generated in microtiter plates for 48 hours and treated with OSU-03012 for 24 hours before being subject to an XTT reduction assay of metabolic activity.
as §1

[5] = system: C. albicans strain SC5314; test: Mouse model of candidiasis, kidney fungal burden; type: in vivo; details: BALB/c mice, 100 mg/kg per day by oral gavage in peanut oil, 2 days, C. albicans SC5314 i.v.
Procedure: (§2) YPD cultures were incubated at 37° C. for 30 hours in the presence of the indicated drugs and combinations. Aliquots were diluted and plated on YPD at 30° C. to determine inoculum. […] BALB/c mice (n=5 per group) were treated with 100 mg/kg OSU-03012 per day by oral gavage after inoculation with C. albicans SC5314 by tail vein injection for 2 days and kidney fungal burden was determined.
On the day of inoculation (DO), BALB/c mice were restrained in a mechanical restrainer and inoculated with C. albicans strain SC5314 suspended in saline (1×10^5 cfu/animal) via lateral tail vein injection. OSU-03012 (100 mg/kg) in peanut oil was given by gavage to half the animals (n=5) and peanut oil alone was given to the other half of animals on the day of inoculation and on the following day. ON D2, the animals were sacrificed and the kidneys harvested. The kidneys were homogenized and dilutions were plated on yeast peptone dextrose plates containing gentamicin and vancomycin. The plates were incubated at 30° C. for one day and colony forming units per kidney were determined by standard methods. Differences between treatment and no treatment groups were analyzed by Student's t test with a statistically significant effect defined as P<0.05.

[6] = system: C. neoformans H99; test: Time-kill evaluation in combination with fluconazole; type: cell-based, Cryptococcus neoformans; details: C. neoformans H99, YPD, 37° C., 30 hours
Procedure: as §2
To determine if the combination of OSU-03012 and fluconazole was fungicidal, overnight cultures of C. neoformas strain H99 were diluted to 1.5×10^4 cells/ml in yeast peptone dextrose containing either: dimethyl sulfoxide (DMSO) (1% final concentration); fluconazole (2 μg/ml/1% DMSO); OSU-03012 (2 μg/ml/1% DMSO); or OSU-03012 and fluconazole (2 μg/ml each/1% DMSO). The cultures were incubated at 37° C. for 30 hours. Aliquots were removed at 0, 3, 6, 24, and 30 hours; diluted and plated on yeast peptone dextrose plates. The plates were incubated at 30° C. for 48 hours and colony forming units per ml determined by standard methods. It was determined that the combination of OSU-03012 and fluconazole was fungicidal (FIG. 9A).

[7] = system: human cells; details: cited from earlier work
[8] = system: CWI pathway reporter Rlm1-lacZ; test: β-Galactosidase CWI pathway reporter assay (Rlm1-lacZ); type: cell-based; details: sub-inhibitory concentrations (1/2 MIC), S. cerevisiae
Procedure: Bars indicate mean fold change in Miller units of β-galactosidase activity relative to logarithmic phase cells without calcofluor or PKI. Error bars indicate standard deviation of three independent trials performed in triplicate. […] The percentage of cells with PI uptake was determined by fluorescence.
Logarithmic phase S. cerevisiae (BY4741) cells harboring the pRLM1-lacZ plasmid were transferred to a 96-well plate, and treated with Calcofluor white ([…])+/−protein kinase inhibitor at sub-inhibitory concentrations (1/2MIC). The cells were incubated at room temperature for 5 hours and processed for β-galactosidase activity using the ThermoScientific Yeast β-galactosidase kit according to the manufacturer's instructions (Pierce; Rockford, Ill.). β-galactosidase activity was determined by measuring OD420 using a SpectraMax Plate reader (Molecular Devices) and expressed as fold change in Miller units (nmole/mg/min) relative to untreated cells. Each experiment was performed in duplicate with three independent isolates.
The novel, antifungal PKIs identified in the primary screen were evaluated for their ability to block CWI pathway signaling using a reporter construct that contains two copies of the consensus binding site for the CWI-pathway-regulated transcription factor Rlm1 fused to the β-galactosidase gene (Jung et al., Mol. Microbiol. 46:781-9 (2002)). […]

[9] = system: C. albicans; test: Checkerboard interaction assay (FIC); type: cell-based, Candida albicans
Procedure: This assay allows one to compare the activity of a molecule alone and in combination with another molecule by generating a fractional inhibitory concentration (FIC). FIC for two drugs (A & B) is calculated as follows: […]. FIC values less than 0.5 are considered synergistic; between 0.5 and 1 are additive; between 1-2 are indifferent; and above 2 are antagonistic. […] Therefore, KP-372-1 is not synergistic with either agent.

[10] = C. albicans growth assay, Table 1
[11] = Candida albicans, C. albicans growth assay, Table 1, read-out: MIC

In the case of CC[n+]1c(/C=C/N(C)c2ccccc2)n(-c2ccccc2)c2ccc(-c3nc4ccccc4s3)cc21.[I-] [Akt IV], the “Fold increase in AK release” value [1] is reported as 12 Fold and the MIC [2, 10] is reported as 9 µg/mL.

In the case of O=C(Nc1cccc(Nc2ncc(Br)c(NCCc3cnc[nH]3)n2)c1)N1CCCC1 [BX-912], the “MIC (growth inhibition)” value ([2]; C. albicans, planktonic) is reported as ≥ 64 µg/mL and the “MIC (growth inhibition)” value [3] is reported as ≥ 64 µg/mL.

In the case of COc1ccc2c(c[n+](C)c3c4cc5c(cc4ccc23)OCO5)c1OC [Chelerythine], the “Fold increase in AK release” value [1] is reported as 5 Fold and the MIC [2, 10] is reported as 125 µg/mL.

With NCC(=O)Nc1ccc(-n2nc(C(F)(F)F)cc2-c2ccc3c(ccc4ccccc43)c2)cc1 [OSU-03012] the “antifungal activity (in words)” value ([2]; C. albicans) was “good antifungal activity”, the MIC ([2]; Candida albicans, C. albicans, FIG. 7 legend, read-out: MIC) was 3 µg/mL (≈ 6.52 µM) and the “antifungal activity (in words)” value [3] was “good antifungal activity”. The MIC ([3]; Cryptococcus neoformans, FIG. 7 legend) was 4 µg/mL (≈ 8.69 µM), the “activity against C. albicans biofilms (in words)” value [4] was “showed activity” and the “in vivo activity (kidney fungal burden)” value [5] was “in vivo activity against C. albicans infection”. The interaction with fluconazole [6] was “synergistic”, the “time-kill result of the combination” value ([6]; OSU-03012 and fluconazole 2 μg/ml each) was “fungicidal” and the “concentration tolerated in human cells” value [7] was 8000 ng/mL.

For CO[C@H]1C[C@@H]2CC[C@@H](C)[C@@](O)(O2)C(=O)C(=O)N2CCCC[C@H]2C(=O)O[C@H]([C@H](C)C[C@@H]2CC[C@@H](O)[C@H](OC)C2)CC(=O)[C@H](C)/C=C(\C)[C@@H](O)[C@@H](OC)C(=O)[C@H](C)C[C@H](C)/C=C/C=C/C=C/1C [Rapamycin], the “Fold increase in AK release” value [1] was 17 Fold and the MIC [2, 11] was 100 µg/mL (≈ 109 µM).

With CN[C@@H]1C[C@H]2O[C@@](C)([C@@H]1OC)n1c3ccccc3c3c4c(c5c6ccccc6n2c5c31)C(=O)NC4 [Staurosporine] the “Fold increase in AK release” value [1] was 48 Fold and the MIC [2, 11] was 0.5 µg/mL (≈ 1.07 µM).

In the case of NCCNc1ncc(C(N)=O)c(Nc2cccc(C(F)(F)F)c2)n1 [Sykll], the “Fold increase in AK release” value [1] is reported as 14 Fold, the MIC [2, 10] is reported as 9 µg/mL (≈ 26.4 µM) and the “Rlm1-lacZ reporter activity induced by Calcofluor white” value [8] is reported as “completely abolished reporter activity”.

For CN[C@@H]1C[C@H]2O[C@@](C)([C@@H]1OC)n1c3ccccc3c3c4c(c5c6ccccc6n2c5c31)C(=O)N[C@@H]4O [UCN-01], the “antifungal activity (in words)” value ([2]; C. albicans) was “good antifungal activity”, the “antifungal activity (in words)” value [3] was “good antifungal activity” and the “activity against C. albicans biofilms (in words)” value [4] was “showed activity”. The “FIC (fractional inhibitory concentration)” value ([9]; combination with caspofungin) was 1.0 and the “FIC (fractional inhibitory concentration)” value ([9]; combination with fluconazole) was 0.3.

In the case of Herbymicin, the “Fold increase in AK release” value [1] is reported as 127 Fold and the MIC [2, 10] is reported as 40 µg/mL.
